The subject of test [1] is control empty vector (EV) HCC1937 cells. As to the kind of experiment: 48 h olaparib dose-response curve, cell viability. Type of test: cell-based. To be noted: Homo sapiens, HCC1937, 48 h.
For test [2], the system named is Cx43_HCC1937 cells. As to the kind of experiment: 48 h olaparib dose-response curve, cell viability. Type of test: cell-based. To be noted: Homo sapiens.
The test system of test [3] is RAD51 and 53BP1. As to the kind of experiment: RAD51 and 53BP1 immunofluorescence. To be noted: olaparib 100 µM, 96 h. Type of test: cell-based, human. The protocol:
2 000-10 000 cells were plated on glass coverslips (Thermo Fisher Scientific) previously coated with poly-D-lysine hydrobromide (Sigma-Aldrich) and cultured until they were approximately 80 % confluent. They were washed with PBS, fixed with 4 % paraformaldehyde (PFA, Sigma-Aldrich) in PBS for 15 min at room temperature and rinsed twice with PBS. Next, cells were incubated with 0.1 M glycine (Sigma-Aldrich) in distilled water to quench PFA for 10 min at room temperature, and then their membranes were permeabilized with 0.2 % Triton X-100 (Sigma-Aldrich) in PBS for 10 min at room temperature. After two 5 min PBS washes, potential nonspecific antibody binding sites were blocked with 1 % bovine serum albumin (BSA; Sigma-Aldrich) diluted in PBST (PBS+0.1 % Tween 20; Sigma-Aldrich) for 30 min at room temperature. Cells were incubated overnight at 4 °C in the dark with primary antibody (see references in Table 3) diluted in 1 % BSA in PBST. The next day, cells were rinsed three times in PBS for 10 min each, and then incubated 1 h at room temperature in the dark with secondary antibody (see references in Table 3) diluted in 1 % BSA in PBST. After that, they were washed three times with PBS for 5 min each, and their nuclei were stained with 1 µg/mL Hoechst (Invitrogen, Thermo Fisher Scientific) diluted in PBS for 10 min. […]

Test [4] concerns HCC1937 cells. As to the kind of experiment: Intracellular reactive oxygen species (ROS) measurement (DCFDA). Type of test: cell-based, human. The conditions noted are these: 96 h. The procedure: Then, ROS production was determined using the DCFDA/H2DCFDA - Cellular ROS Assay Kit (Abcam) following manufacturer's instructions. […] Afterwards, all cell conditions were washed with 100 µL/well of 1X Buffer and then stained with 100 µL/well of 25 µM 2',7' -dichlorofluorescin diacetate (DCFDA) working solution for 45 min at 37 °C in the dark. DCFDA is a fluorogenic dye, deacetylated by cellular esterases to a non-fluorescent compound, eventually oxidized by ROS into the highly fluorescent 2', 7' -dichlorofluorescein (DCF). DCFDA solution was removed and cells were washed once with phenol red-free DMEM with 10 % FBS. They were left for 1 h at 37 °C and fluorescence was measured in a Synergy HTX plate reader (BioTek) at 485/+-20 nm (excitation) and 528/+-20 nm (emission).
After ROS measurement, CCK-8 proliferation assay was performed. Briefly, medium was removed and replenished with 100 µL/well of complete RPMI. 10 µL of CCK-8 reagent were added to each well, and cells were incubated at 37 °C in the dark for 3 h. Absorbance was measured at 450 nm in a NanoQuant Infinite 200 plate reader (Tecan).
Background fluorescence of phenol red-free DMEM with 10 % FBS was subtracted from all ROS fluorescence values, which were then normalized against their respective proliferation absorbance values. Each experimental condition was further normalized against its untreated counterpart. […]

In test [5] the test system is p21. As to the kind of experiment: Western blot against senescence marker p21. The test is classed as cell-based, human. To be noted: Cx43_HCC1937, 96 h, 100 µM olaparib. The protocol: Protein extracts were mixed with loading buffer, which consisted of 10 % (v/v) β-mercaptoethanol (Sigma-Aldrich), 10 % SDS, 50 % (v/v) glycerol, 200 mM Tris-HCl pH 6.8 and 0.1 % bromophenol blue (Sigma-Aldrich). They were boiled at 95 °C for 8 min and 20-30 µg protein were loaded into 8, 10 or 15 % acrylamide/bis-acrylamide self-made gels, depending on the molecular weight of the target protein/s to investigate. Gels were run at 80 V for approximately 2 h using a Mini-PROTEAN Tetra electrophoresis system (BioRad), and then transferred to methanol-preactivated polyvinylidene fluoride (PVDF) membranes (Millipore) at 100 V and 4 °C for 1-1.5 h with a Mini Trans-Blot Electrophoretic Transfer Cell (BioRad). Afterwards, membranes with the transferred proteins were stained with ATX Ponceau S red staining solution (Sigma-Aldrich) for 10 min at room temperature, photographed in an Amersham Imager 600 (GE Healthcare) and unstained with distilled water. They were then blocked for 1 h at room temperature with 5 % skim milk (Sigma-Aldrich) diluted in TBST buffer (Tris-buffered saline TBS composed of 20 mM Tris and 150 mM NaCl, supplemented with 0.05 % (v/v) Tween-20, Sigma-Aldrich) with shaking. […] Ponceau staining and western blot images were analysed and their band intensities quantitated with Image J software. […]
A general note: In western blotting, separated proteins are transferred to a membrane and probed.

Structures are written as SMILES.

The results in this text go back to EP4463162B1, “CONNEXIN 43 FOR USE IN TREATING BRCA1/2-MUTATED CANCER” (Fundación Profesor Novoa Santos, priority 2022, dated 2023).

The IC50 is the point on the concentration scale where inhibition reaches its midpoint. For `O=C(c1cc(Cc2n[nH]c(=O)c3ccccc23)ccc1F)N1CCN(C(=O)C2CC2)CC1` [Olaparib, olaparib], the results for the IC50 in test [1] and in test [2] were 602 µM and 350 µM, respectively. Moreover, in test [3] (EV and Cx43_HCC1937), the 53BP1 foci entry was “seemed to rise upon olaparib treatment in both cell lines alike”. Also, the RAD51 foci result in test [3] (EV vs Cx43_HCC1937) is on record as “increased just in EV_HCC1937 cells”. In addition, the ROS production entry is recorded as “increased” in test [4] (Cx43_HCC1937, olaparib 50 and 100 µM); “diminished” in test [4] (EV_HCC1937, olaparib 50 and 100 µM, dose-dependent). For the same molecule, the “senescence marker p21” value in test [5] was “significantly increased”.
